Experimental findings from publication PMC12683216, “Using High‐Throughput Screening to Identify Crosslinking Peptides That Control Cell‐Mediated Matrix Degradation” (Advanced Healthcare Materials, 2025) are described below.

Data set [1] in a line: Peptide stability in fresh cell culture media (Blank). The format is in vitro ADME. The following applies: no cell contact, 24 h, LC-MS. The method, then:
(§1) To verify that MMP‐14 can degrade the KLVAD‐LM and PanMMP peptides, recombinant MMP‐14 was added to the different peptides, both in PBS and in the Cell and Media culture conditions (Figure 7 ). Peptides were incubated under three conditions: in fresh cell culture media (“Blank”), in media with cells present (“Cells”), and in cell‐conditioned media (“Media”). This was done for both hMSCs and hUVECs, and was also done with and without the addition of exogenous MMP.
(§2) The extent of peptide degradation was quantified for samples both with and without the addition of exogenous MMP‐14. […] Error bars indicate ± standard deviation, N = 3 with technical triplicates.
hUVECs (75000 per well) or hMSCs (36000 per well) were seeded into a 48 well plate, and 500 µL media was added to the wells. […] The peptide libraries were dissolved at a stock solution of 10 mM total peptide content. […]
(§3) For all degradation studies using soluble peptides, a non‐proteolytically degradable NH2‐βFβAβAβAβAβAβA‐amide (βFβA6) peptide, where βF is β‐phenylalanine and βA is β‐alanine, was added at a 50 µM concentration and used as an internal standard. Peptide degradation ratios were measured by LC‐MS and analyzed by Xcalibur. The relative concentrations of the peptide were calculated by the ratio of the peak area of the peptide and the peak area of βFβA6.

Another data set has as its target T1, recombinant MMP‐14 (Homo sapiens, UniProt P50281).
T1 construct: purchased antibodies.com
As to the kind of experiment: Peptide degradation with added exogenous recombinant MMP-14 (LC-MS). The format is in vitro ADME. The following applies: fresh cell culture media (both hMSC and hUVEC media), no cell contact, recombinant MMP-14 0.5 nM, 24 h, LC-MS. How it is done:
as §1, §2
hUVECs (75000 per well) or hMSCs (36000 per well) were seeded into a 48 well plate, and 500 µL media was added to the wells. […] The peptide libraries were dissolved at a stock solution of 10 mM total peptide content. For libraries containing 38 peptides, 95 µL of the stock solution was added to each well; for libraries with 19 peptides, 47.5 µL was added to each well, and media was taken at 0 and 24 h. Add 4 µL of acetic acid to all collected media in the LC‐MS plates and store them in a −80 °C freezer to prevent further proteolytic degradation. From each sample, 10 µL of crude solution was introduced by the LC‐MS through a Thermo Scientific Vanquish LC System (Thermo Fisher Scientific), which outputted to a Thermo Scientific LTQ XL Linear Ion Trap Mass Spectrometer (Thermo Fisher Scientific). The sampled mixture was trapped on a column (ProntoSIL C18 AQ, 120 Å, 3 µm, 2.0 x 50 mm HPLC Column, PN 0502F184PS030, MAC‐MOD Analytical Inc.). The samples were loaded onto the column with a solvent containing acetonitrile/water, 5:95 (v/v) containing 1% acetic acid at a flow rate of 300 µL min^−1 and held for 1 min. The sample was then eluted from the column with a linear gradient of 5–40% Solvent B (1% acetic acid in acetonitrile) at the same flow rate for 5 min. This was followed by a 1 min ramp up to 100% Solvent B, where it was re‐equilibrated with Solvent A (1% acetic acid) to 5% solvent B over the course of 1 min and held there for 2 min. The column temperature was kept at a constant 29 °C, and the mass spectrometer was operated in positive ion mode. Using a Heated ESI, the Source Voltage was set to 4.1 kV, and the capillary temperature was 350 °C. For non‐library degradation studies, 2.5 µL of 10 mM peptide stock solution for each peptide was added.
To assess the activity of the conditioned media, the media were divided into two equal portions. One portion was used for a standard degradation study, while the other was cultured for an additional 24 h before the PanMMP and KLVADLMASAE were added. After 24 h of incubation, the media were collected for further analysis. To assess the impact of recombinant MMP‐14 on PanMMP and KLVADLMASAE, recombinant MMP‐14 (antibodies.com) was dissolved in the media at a concentration of 0.5 nM. The remaining steps followed the standard degradation study protocol.
as §3

Another data set relates to hMSCs. As to the kind of experiment: Quantification of peptide and hydrogel degradation in cell-laden PEG hydrogels (Cy3/FAM fluorescence). It counts as in vitro ADME, human. An excerpt: Next we designed systems to quantify the amount of crosslinking peptide degradation and bulk hydrogel degradation during culture. We synthesized both the KLVAD‐LM peptide and the PanMMP peptide with an N‐terminal Cy3 and a C‐terminal azide to click into the PEG hydrogel network, and also coupled fluorescein (FAM) to the hydrogel using a non‐degradable linker (Figure 5A). Proteolytic cleavage of the crosslinking peptides will liberate the Cy3 from the PEG hydrogel, and bulk erosion of the hydrogel reduces the amount of PEG and FAM. At desired time points, the gels were completely degraded with trypsin, and the fluorescence intensity of Cy3 and FAM was measured to quantify peptide and hydrogel degradation during culture (Figure 5B).
Figure 5 The rate of degradation of crosslinking peptides in the hydrogels was quantified using fluorescence. A) A fraction of PEG arms were functionalized with PanMMP and KLVAD‐LM peptides that were labeled with […] on their N‐terminus and conjugated to the PEG hydrogel matrix on their C‐terminus to quantify crosslinker degradation. Fluorescein (FAM) was also conjugated to the hydrogel through non‐degradable linkers to quantify bulk hydrogel degradation. […] The amounts of remaining Cy3 and FAM were quantified using fluorescence spectroscopy. […]

Where a SMILES comes first, the peptide text is derived from it. [ ]: non-standard residue; d: D form. βAla = NCCC(=O)O

As to `CC[C@H](C)[C@H](NC(=O)CNC(=O)[C@H](CCC(N)=O)NC(=O)[C@@H]1CCCN1C(=O)CNC(=O)CCNC(C)=O)C(=O)N[C@@H](Cc1c[nH]c2ccccc12)C(=O)NCC(=O)N[C@@H](CCC(N)=O)C(=O)NCCC(N)=O` [PanMMP, reference compound] (Ac-[βAla]GPQGIWGQ[βAla]-NH2), the “degradation in the Blank condition without added MMP‐14 (hydrolytic stability)” value in data set [1] is “negligible degradation”. Also, on recombinant MMP‐14, the “degradation on adding MMP‐14 to the Blank condition” value is 10–20%.

For `CSCC[C@H](NC(=O)[C@H](CC(C)C)NC(=O)[C@H](CC(=O)O)NC(=O)[C@H](C)NC(=O)[C@@H](NC(=O)[C@H](CC(C)C)NC(=O)[C@H](CCCCN)NC(=O)CCNC(C)=O)C(C)C)C(=O)N[C@@H](C)C(=O)N[C@@H](CO)C(=O)N[C@@H](C)C(=O)N[C@@H](CCC(=O)O)C(=O)NCCC(N)=O` [KLVAD-LM] (Ac-[βAla]KLVADLMASAE[βAla]-NH2), in the data set on hMSCs, the “degradation within hydrogels relative to that seen with the PanMMP peptide, hMSCs” value is on record as 40–60%.
